Laboratory results published in paper PMC6829886, “Inhibition of Non-Small Cell Lung Cancer Cells by Oxy210, an Oxysterol-Derivative that Antagonizes TGFβ and Hedgehog Signaling” (Cells, 2019).

Experiments:
[1] = test system: Hh pathway target genes Gli1 and Hip in Sufu-/- MEFs; test: Hh target gene expression in Sufu-/- mouse embryonic fibroblasts; assay type: cell-based; conditions: 72 h
Method: (§1) Total RNA was extracted with the RNeasy Plus Mini Kit from Qiagen (Hilden, Germany) according to the manufacturer’s instructions. One microgram of RNA was reverse-transcribed using an iScript Reverse Transcription Supermix from Bio-Rad Laboratories (Hercules, CA, USA) to make single-stranded cDNA. The cDNAs were then mixed with Qi SYBR Green Supermix (Bio-Rad) for quantitative RT-PCR assay using a Bio-Rad I-cycler IQ quantitative thermocycler. All PCR samples were prepared in triplicate wells in a 96-well plate. After 40 cycles of PCR, melt curves were examined in order to ensure primer specificity. Fold changes in gene expression were calculated using the ΔΔCt method. Primers used for mouse were as follows: Oaz1 (5′-CCACTGCTTCGCCAGAGAG-3′) and (5′-CCCGGACCCAGGTTACTA-3′), Gli1 (5′- […]-3′ and 5′- GCT GATCCAGCCTAAGGTTCTC-3′), Ptch1 (5′-CCATCGGCGACAAGAACC-3′ and 5′-[…]-3′), Thbs1 (5′-[…]-3′ and 5′-CGGGGATCAGGTTGGCATT-3′), Cryab (5′-[…]-3′ and 5′-[…]-3′), Egr2 (5′-[…]-3′ and 5′-[…]-3′), CTGF (5′-GGGCCTCTTCTGCGATTTC-3′ and 5′-[…]-3′).
Figure 5 Oxy210 acts downstream of Smo. (a) Sufu-/- MEF cells were treated with DMEM containing 5% FBS in the presence or absence of Oxy210. After 72 h, RNA was extracted and analyzed by Q-RT-PCR for the expression of Hh target genes Gli1 and Hip, normalized to Oaz1 expression. […] Luciferase activity was measured and normalized to the Renilla luciferase activity. […]

A549 cells = test: TGFβ-induced EMT in A549 cells (morphology, Q-RT-PCR); assay type: cell-based, human
Method: as §1
Primers used for human were as follows: GAPDH (5′- […]-3′ and 5′- […]-3′), SHH (5′- CGGAGCGAGGAAGGGAAAG-3′) and (5′- […]-3′), GLI1 (5′- GAAGCCGAGCCGAGTATC-3′ and 5′-[…]-3′), GLI2 (5′-[…]-3′ and 5′-[…]-3′), Fn-EDA (5′- […]-3′ and 5′- […]-3′), E-Cadherin (5′- […]-3′ and 5′- TCCCAGGCGTAGACCAAGA-3′), SNAIL (5′- […]-3′ and 5′- […]-3′), N-Cadherin (5′- […]-3′ and 5′- […]-3′), Vimentin (5′- […]-3′ and 5′- […]-3′), ZO-1 (5′- […]-3′ and 5′- […]-3′), MMP2 (5′- […]-3′ and 5′- […]-3′), MMP9 (5′-[…]-3′ and 5′-[…]).
Figure 8 Inhibition of TGFβ-induced EMT in NSCLC cells. (a) A549 cells were treated with TGFβ in the absence or presence of Oxy210 in RPMI 1640 containing 2% FBS for 5 days. The cells were washed with PBS and then fixed with 2% formaldehyde in PBS at room temperature for 15 min. Formaldehyde was then removed, cells washed with PBS and stained with 4% Trypan Blue for 5 min. Phase contrast images were obtained using a 20X objective lens. A549 (b,c) and H2030 (d) cells were treated in RPMI 1640 containing 0.1% FBS overnight and then pretreated for 2 h with Oxy210 in RPMI 1640 containing 0.1% FBS. Next, cells were treated with TGFβ in the absence or presence of Oxy210. After 48 h, RNA was extracted and analyzed by Q-RT-PCR for the expression of the genes as indicated and normalized to GAPDH expression. Data from a representative experiment are reported as the mean of triplicate determinations ± SD (** p < 0.01 vs. TGFβ treated cells; ## p < 0.01 vs. control).

[2] = Dose escalation study with repeated once daily oral dosing for 7 days in mice; assay type: in vivo; conditions: once daily oral 50, 200 and 400 mg/kg for 7 days
Method: In an initial assessment of drug-like properties of Oxy210, we performed a pharmacokinetic (PK) study in mice. Oxy210, formulated in 3% DMSO + 7% Ethanol + 5% PEG400 + 85% corn oil, was administered to balb/c mice by oral gavage as a single dose of 50 mg/kg. Plasma samples were taken at 10 min, 30 min, 1 h, 2 h, 4 h, and 8h, followed by LC/MS analysis. […] Additional PK studies in mice were performed with Oxy210 in a dose escalation study with repeated once daily oral dosing (50 mg/kg, 200 mg/kg and 400 mg/kg) for 7 days.

Q: With `C[C@]12CC[C@H]3[C@@H](CC=C4C[C@@H](O)CC[C@@]43C)[C@@H]1CC[C@@H]2[C@](C)(O)CCc1cccnc1` [Oxy210, (3S,8S,9S,10R,13S,14S,17S)-17-((R)-2-hydroxy-4-(pyridin-3-yl)butan-2-yl)-10,13-dimethyl-2,3,4,7,8,9,10,11,12,13,14,15,16,17-tetradecahydro-1H-cyclopenta[a]phenanthren-3-ol] as the molecule, how does the “high baseline expression of Hh pathway target genes Gli1 and Hip” value [1] read?
A: The value was “significant inhibition”.

Q: What about the “TGFβ-induced EMT morphology changes” value (A549 cells) of the same molecule?
A: The value was “reversed”.

Q: What about the “expression of E-Cad downregulated by TGFβ” value (A549 cells; 48 h) of the same molecule?
A: The value was “partially rescued”.

Q: What about the “expression of mesenchymal genes upregulated by TGFβ (SNAIL, ZO-1, Fn-EDA, N-Cad)” value (A549 cells; 48 h) of the same molecule?
A: The value was “inhibited the expression of mesenchymal genes”.

Q: What about the “mRNA expression of MMP2 and MMP9 induced by TGFβ” value (A549 cells; 48 h) of the same molecule?
A: Its value is “inhibited the mRNA expression”.

Q: What about the PK linearity [2] of the same molecule?
A: The PK linearity was “linear PK parameters and exposure”.

Q: And the tolerability [2]?
A: The tolerability was “well tolerated and apparently safe”.
